Where two headings read alike, the source gives them in different places.
How the values were obtained:
ZR-75-1 = experiment: Cell proliferation assay (CellTiter-Glo); details: Homo sapiens, ZR-75-1, 72 h, read-out: 3-day antiproliferative IC50
Lck = Lck (Homo sapiens, UniProt P06239); experiment: ICKP radiometric kinase assay; format: biochemical; details: read-out: % AR (% kinase activity remaining)
DAPK1 = DAPK1 (Homo sapiens, UniProt P53355); experiment: ICKP radiometric kinase assay; format: biochemical; details: read-out: % AR (% kinase activity remaining)
p38 delta = p38 delta (Homo sapiens, UniProt O15264); experiment: ICKP radiometric kinase assay; format: biochemical; details: read-out: % AR (% kinase activity remaining)
ERK8 = ERK8 (Homo sapiens, UniProt Q8TD08); experiment: ICKP radiometric kinase assay; format: biochemical; details: read-out: % AR (% kinase activity remaining)
ROCK 2 = ROCK 2 (Homo sapiens, UniProt O75116); experiment: ICKP radiometric kinase assay; format: biochemical; details: read-out: % AR (% kinase activity remaining)
GCK = GCK (Homo sapiens, UniProt Q12851); experiment: ICKP radiometric kinase assay; format: biochemical; details: read-out: % AR (% kinase activity remaining)
BRSK2 = BRSK2 (Homo sapiens, UniProt Q8IWQ3); experiment: ICKP radiometric kinase assay; format: biochemical; details: read-out: % AR (% kinase activity remaining)
SRPK1 = SRPK1 (Homo sapiens, UniProt Q96SB4); experiment: ICKP radiometric kinase assay; format: biochemical; details: read-out: % AR (% kinase activity remaining)
PAK2 = PAK2 (Homo sapiens, UniProt Q13177); experiment: ICKP radiometric kinase assay; format: biochemical; details: read-out: % AR (% kinase activity remaining)
MLK3 = MLK3 (Homo sapiens, UniProt Q16584); experiment: ICKP radiometric kinase assay; format: biochemical; details: read-out: % AR (% kinase activity remaining)
[1] = test system: select off-target kinases; experiment: Off-target kinase inhibition (Z’-LYTE/Adapta), comparison; format: biochemical; details: from Table 1 IC50 values
MAP4K3 = MAP4K3 (Homo sapiens, UniProt Q8IVH8); experiment: ICKP radiometric kinase assay; format: biochemical; details: read-out: % AR (% kinase activity remaining)
ERK1 = ERK1 (Homo sapiens, UniProt P27361); experiment: ICKP radiometric kinase assay; format: biochemical; details: read-out: % AR (% kinase activity remaining)
PKA = PKA (Homo sapiens, UniProt P17612); experiment: ICKP radiometric kinase assay; format: biochemical; details: read-out: % AR (% kinase activity remaining)
141 kinases = experiment: ICKP panel radiometric kinase profiling (summary); format: biochemical; details: radioactive filter-binding assay; kinases inhibited more strongly than MELK in the ICKP panel; read-out: IC50 values of potential off-target kinases
TBK1 = TBK1 (Homo sapiens, UniProt Q9UHD2); experiment: ICKP radiometric kinase assay; format: biochemical; details: read-out: % AR (% kinase activity remaining)
ERK5 = ERK5 (Homo sapiens, UniProt Q13164); experiment: ICKP radiometric kinase assay; format: biochemical; details: read-out: % AR (% kinase activity remaining)
PAK4 = PAK4 (Homo sapiens, UniProt O96013); experiment: ICKP radiometric kinase assay; format: biochemical; details: read-out: % AR (% kinase activity remaining)
GSK3 beta = GSK3 beta (Homo sapiens, UniProt P49841); experiment: ICKP radiometric kinase assay; format: biochemical; details: read-out: % AR (% kinase activity remaining)
MEKK1 = MEKK1 (Homo sapiens, UniProt Q13233); experiment: ICKP radiometric kinase assay; format: biochemical; details: read-out: % AR (% kinase activity remaining)
ERK2 = ERK2 (Homo sapiens, UniProt P28482); experiment: ICKP radiometric kinase assay; format: biochemical; details: read-out: % AR (% kinase activity remaining)
MAP4K5 = MAP4K5 (Homo sapiens, UniProt Q9Y4K4); experiment: ICKP radiometric kinase assay; format: biochemical; details: read-out: % AR (% kinase activity remaining)
TAK1 = TAK1 (Homo sapiens, UniProt O43318); experiment: ICKP radiometric kinase assay; format: biochemical; details: read-out: % AR (% kinase activity remaining)
EPH-B2 = EPH-B2 (Homo sapiens, UniProt P29323); experiment: ICKP radiometric kinase assay; format: biochemical; details: read-out: % AR (% kinase activity remaining)
GSK3A = GSK3A (Homo sapiens, UniProt P49840); experiment: Z’-LYTE enzymatic assay; details: Z’-LYTE assay at [ATP]=apparent Km; read-out: Biochemical IC50 GSK3A
SGK1 = SGK1 (Homo sapiens, UniProt O00141); experiment: ICKP radiometric kinase assay; format: biochemical; details: read-out: % AR (% kinase activity remaining)
TTBK2 = TTBK2 (Homo sapiens, UniProt Q6IQ55); experiment: ICKP radiometric kinase assay; format: biochemical; details: read-out: % AR (% kinase activity remaining)
CLK2 = CLK2 (Homo sapiens, UniProt P49760); experiment: ICKP radiometric kinase assay; format: biochemical; details: read-out: % AR (% kinase activity remaining)
ULK1 = ULK1 (Homo sapiens, UniProt O75385); experiment: ICKP radiometric kinase assay; format: biochemical; details: read-out: % AR (% kinase activity remaining)
MSK1 = MSK1 (Homo sapiens, UniProt O75582); experiment: ICKP radiometric kinase assay; format: biochemical; details: read-out: % AR (% kinase activity remaining)
SIK2 = SIK2 (Homo sapiens, UniProt Q9H0K1); experiment: ICKP radiometric kinase assay; format: biochemical; details: read-out: % AR (% kinase activity remaining)
MCF7 = experiment: Cell proliferation assay (CellTiter-Glo); details: Homo sapiens
MARK3 = MARK3 (Homo sapiens, UniProt P27448); experiment: ICKP radiometric kinase assay; format: biochemical; details: read-out: % AR (% kinase activity remaining)
CHK1 = CHK1 (Homo sapiens, UniProt O14757); experiment: ICKP radiometric kinase assay; format: biochemical; details: read-out: % AR (% kinase activity remaining)
WNK1 = WNK1 (Homo sapiens, UniProt Q9H4A3); experiment: ICKP radiometric kinase assay; format: biochemical; details: read-out: % AR (% kinase activity remaining)
PHK = experiment: ICKP radiometric kinase assay; format: biochemical; details: 1 μM
PLK1 = PLK1 (Homo sapiens, UniProt P53350); experiment: ICKP radiometric kinase assay; format: biochemical; details: read-out: % AR (% kinase activity remaining)
[2] = MCF7, 72 h, read-out: 3-day antiproliferative IC50
[3] = MCF7, 168 h, read-out: 7-day antiproliferative IC50

Sequence of TTBK2 (Q6IQ55 whole entry): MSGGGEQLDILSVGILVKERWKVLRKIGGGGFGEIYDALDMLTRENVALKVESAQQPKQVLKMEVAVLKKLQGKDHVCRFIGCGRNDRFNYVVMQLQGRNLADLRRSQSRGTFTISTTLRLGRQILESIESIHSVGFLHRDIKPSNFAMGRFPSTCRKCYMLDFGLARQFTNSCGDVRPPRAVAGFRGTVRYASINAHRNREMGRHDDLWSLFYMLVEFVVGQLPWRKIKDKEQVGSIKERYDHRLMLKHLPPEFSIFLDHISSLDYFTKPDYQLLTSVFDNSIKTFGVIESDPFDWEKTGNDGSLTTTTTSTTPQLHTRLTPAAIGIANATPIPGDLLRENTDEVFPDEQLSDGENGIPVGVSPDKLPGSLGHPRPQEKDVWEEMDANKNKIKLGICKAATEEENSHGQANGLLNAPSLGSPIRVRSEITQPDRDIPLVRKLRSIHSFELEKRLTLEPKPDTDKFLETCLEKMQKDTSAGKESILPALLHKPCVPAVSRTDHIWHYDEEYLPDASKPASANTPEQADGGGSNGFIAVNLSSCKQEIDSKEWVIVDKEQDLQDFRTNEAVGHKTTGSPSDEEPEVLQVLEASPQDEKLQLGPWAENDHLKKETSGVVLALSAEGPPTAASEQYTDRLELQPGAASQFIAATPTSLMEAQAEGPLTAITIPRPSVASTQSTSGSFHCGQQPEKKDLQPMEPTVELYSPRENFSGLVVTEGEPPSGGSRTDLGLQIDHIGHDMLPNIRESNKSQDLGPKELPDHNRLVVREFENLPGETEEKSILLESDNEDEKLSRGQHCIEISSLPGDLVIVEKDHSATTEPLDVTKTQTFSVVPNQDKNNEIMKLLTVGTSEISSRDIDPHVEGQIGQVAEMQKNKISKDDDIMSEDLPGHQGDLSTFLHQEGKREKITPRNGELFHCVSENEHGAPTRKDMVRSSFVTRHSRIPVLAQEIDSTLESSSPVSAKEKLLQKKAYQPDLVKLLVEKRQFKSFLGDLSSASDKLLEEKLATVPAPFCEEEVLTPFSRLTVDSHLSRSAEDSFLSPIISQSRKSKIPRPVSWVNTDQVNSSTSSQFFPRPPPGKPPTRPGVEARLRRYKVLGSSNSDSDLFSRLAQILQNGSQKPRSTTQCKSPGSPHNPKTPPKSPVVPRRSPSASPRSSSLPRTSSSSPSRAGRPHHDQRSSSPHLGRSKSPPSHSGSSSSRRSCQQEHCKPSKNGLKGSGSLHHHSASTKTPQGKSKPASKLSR
Sequence of BRSK2 (Q8IWQ3 whole entry): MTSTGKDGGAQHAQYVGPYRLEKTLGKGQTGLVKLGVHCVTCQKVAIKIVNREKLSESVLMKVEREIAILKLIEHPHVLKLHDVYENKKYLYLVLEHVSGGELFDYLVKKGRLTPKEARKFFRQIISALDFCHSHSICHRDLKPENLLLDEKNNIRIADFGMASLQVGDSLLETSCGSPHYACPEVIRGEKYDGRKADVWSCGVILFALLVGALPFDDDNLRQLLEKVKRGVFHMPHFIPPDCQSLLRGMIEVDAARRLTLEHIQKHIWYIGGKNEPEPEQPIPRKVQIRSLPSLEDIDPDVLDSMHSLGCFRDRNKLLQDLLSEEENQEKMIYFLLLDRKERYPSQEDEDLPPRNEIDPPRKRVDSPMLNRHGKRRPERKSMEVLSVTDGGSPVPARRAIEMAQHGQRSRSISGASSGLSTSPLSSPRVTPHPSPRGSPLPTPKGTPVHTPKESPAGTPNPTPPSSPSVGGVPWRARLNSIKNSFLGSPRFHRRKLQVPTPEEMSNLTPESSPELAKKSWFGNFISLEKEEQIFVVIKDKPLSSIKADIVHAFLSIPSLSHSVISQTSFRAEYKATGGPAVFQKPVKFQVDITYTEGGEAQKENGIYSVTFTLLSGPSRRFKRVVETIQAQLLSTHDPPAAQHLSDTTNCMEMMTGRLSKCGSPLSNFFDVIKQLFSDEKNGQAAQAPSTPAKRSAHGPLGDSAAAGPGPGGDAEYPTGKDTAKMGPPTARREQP
Sequence of PAK4 (O96013 whole entry): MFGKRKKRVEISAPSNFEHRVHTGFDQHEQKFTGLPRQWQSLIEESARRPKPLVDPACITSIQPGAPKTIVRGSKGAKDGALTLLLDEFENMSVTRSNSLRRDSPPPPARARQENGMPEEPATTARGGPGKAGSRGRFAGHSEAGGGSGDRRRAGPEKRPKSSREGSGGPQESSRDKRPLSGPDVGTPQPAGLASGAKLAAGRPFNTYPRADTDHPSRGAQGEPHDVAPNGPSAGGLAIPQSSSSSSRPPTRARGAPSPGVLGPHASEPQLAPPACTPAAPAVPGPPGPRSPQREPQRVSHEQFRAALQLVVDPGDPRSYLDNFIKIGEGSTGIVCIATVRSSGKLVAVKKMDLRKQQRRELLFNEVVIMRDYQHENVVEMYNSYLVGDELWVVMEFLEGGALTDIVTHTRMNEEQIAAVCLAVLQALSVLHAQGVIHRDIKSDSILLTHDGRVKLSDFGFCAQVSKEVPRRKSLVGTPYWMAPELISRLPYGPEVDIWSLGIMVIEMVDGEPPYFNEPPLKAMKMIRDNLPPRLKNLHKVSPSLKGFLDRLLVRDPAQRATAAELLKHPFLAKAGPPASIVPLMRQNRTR
Sequence of SGK1 (O00141 whole entry): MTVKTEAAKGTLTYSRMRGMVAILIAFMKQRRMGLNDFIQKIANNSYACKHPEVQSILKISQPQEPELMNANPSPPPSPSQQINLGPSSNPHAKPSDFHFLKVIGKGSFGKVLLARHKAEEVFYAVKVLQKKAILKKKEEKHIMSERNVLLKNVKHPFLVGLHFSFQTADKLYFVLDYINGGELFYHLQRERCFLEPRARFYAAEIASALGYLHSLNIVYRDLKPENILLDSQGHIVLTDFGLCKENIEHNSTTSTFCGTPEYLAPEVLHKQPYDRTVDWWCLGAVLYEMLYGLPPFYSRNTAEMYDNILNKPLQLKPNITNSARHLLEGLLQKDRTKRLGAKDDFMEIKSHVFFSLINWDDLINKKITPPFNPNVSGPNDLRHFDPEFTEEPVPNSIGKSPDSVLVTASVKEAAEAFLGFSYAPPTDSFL
Sequence of GSK3 beta (P49841 whole entry): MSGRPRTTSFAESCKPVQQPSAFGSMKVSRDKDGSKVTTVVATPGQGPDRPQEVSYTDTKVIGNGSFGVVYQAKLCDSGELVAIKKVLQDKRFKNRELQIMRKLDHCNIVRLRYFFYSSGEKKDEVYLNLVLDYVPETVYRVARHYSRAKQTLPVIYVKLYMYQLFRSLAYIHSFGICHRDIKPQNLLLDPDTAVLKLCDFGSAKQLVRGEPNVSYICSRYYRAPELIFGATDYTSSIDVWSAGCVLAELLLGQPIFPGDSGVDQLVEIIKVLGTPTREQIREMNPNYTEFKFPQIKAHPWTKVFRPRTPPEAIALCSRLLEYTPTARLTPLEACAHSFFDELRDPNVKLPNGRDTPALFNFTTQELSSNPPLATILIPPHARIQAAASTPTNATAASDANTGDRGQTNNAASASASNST
Sequence of PLK1 (P53350 whole entry): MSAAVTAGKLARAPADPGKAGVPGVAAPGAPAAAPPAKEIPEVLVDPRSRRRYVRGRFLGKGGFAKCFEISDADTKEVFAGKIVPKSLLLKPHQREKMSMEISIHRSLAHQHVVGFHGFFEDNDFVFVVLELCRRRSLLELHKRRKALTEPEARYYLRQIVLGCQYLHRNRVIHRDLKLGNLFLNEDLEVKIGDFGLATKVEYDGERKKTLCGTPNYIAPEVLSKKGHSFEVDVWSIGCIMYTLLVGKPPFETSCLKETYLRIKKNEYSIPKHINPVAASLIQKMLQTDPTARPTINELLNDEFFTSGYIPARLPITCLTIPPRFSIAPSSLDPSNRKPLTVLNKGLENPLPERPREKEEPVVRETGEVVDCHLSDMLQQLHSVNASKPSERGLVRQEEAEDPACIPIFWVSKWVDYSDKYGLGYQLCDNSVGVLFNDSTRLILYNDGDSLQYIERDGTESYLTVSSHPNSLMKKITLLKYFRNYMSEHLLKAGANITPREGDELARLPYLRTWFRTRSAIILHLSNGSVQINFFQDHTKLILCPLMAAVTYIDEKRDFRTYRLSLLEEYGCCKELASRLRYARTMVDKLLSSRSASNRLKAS
Sequence of MARK3 (P27448 whole entry): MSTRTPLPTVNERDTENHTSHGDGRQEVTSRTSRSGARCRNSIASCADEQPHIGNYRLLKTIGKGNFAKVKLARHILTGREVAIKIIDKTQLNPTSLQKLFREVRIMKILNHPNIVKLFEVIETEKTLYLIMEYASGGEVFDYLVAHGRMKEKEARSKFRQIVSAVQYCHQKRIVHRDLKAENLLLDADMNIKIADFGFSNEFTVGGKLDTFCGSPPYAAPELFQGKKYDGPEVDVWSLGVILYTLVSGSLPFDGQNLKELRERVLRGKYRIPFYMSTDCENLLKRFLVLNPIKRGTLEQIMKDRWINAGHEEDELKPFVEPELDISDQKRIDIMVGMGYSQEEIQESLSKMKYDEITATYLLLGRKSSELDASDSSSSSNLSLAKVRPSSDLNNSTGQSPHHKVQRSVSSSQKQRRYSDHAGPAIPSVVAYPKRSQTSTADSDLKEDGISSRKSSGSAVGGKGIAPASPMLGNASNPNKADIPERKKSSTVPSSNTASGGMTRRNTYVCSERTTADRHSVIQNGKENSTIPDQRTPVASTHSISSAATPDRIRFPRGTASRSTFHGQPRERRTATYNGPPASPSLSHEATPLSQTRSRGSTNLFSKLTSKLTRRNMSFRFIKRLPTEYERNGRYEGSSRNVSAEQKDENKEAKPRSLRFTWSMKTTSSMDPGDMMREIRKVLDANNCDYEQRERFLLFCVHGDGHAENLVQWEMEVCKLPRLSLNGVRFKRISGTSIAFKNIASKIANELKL

Structure (SMILES) | IC50 (ZR-75-1) | remaining activity at 1 µM (Lck) | remaining activity at 1 µM (DAPK1) | remaining activity at 1 µM (p38 delta) | remaining activity at 1 µM (ERK8) | remaining activity at 1 µM (ROCK 2) | remaining activity at 1 µM (GCK) | remaining activity at 1 µM (BRSK2) | remaining activity at 1 µM (SRPK1) | remaining activity at 1 µM (PAK2) | remaining activity at 1 µM (MAP4K3) | remaining activity at 1 µM (ERK1) | remaining activity at 1 µM (PKA) | remaining activity at 1 µM (TBK1) | remaining activity at 1 µM (ERK5) | remaining activity at 1 µM (PAK4) | remaining activity at 1 µM (GSK3 beta) | remaining activity at 1 µM (MEKK1) | remaining activity at 1 µM (ERK2) | remaining activity at 1 µM (MAP4K5) | also measured
CN(C)C[C@H]1CC[C@H](N2C(=O)NCc3cnc4ccc(-c5cc(Cl)c(O)c(Cl)c5)cc4c32)CC1 [HTH-01-091, 9-(3,5-dichloro-4-hydroxyphenyl)-1-(trans-4-((dimethylamino)methyl)cyclohexyl)-3,4-dihydropyrimido[5,4 c]quinolin-2(1H)-one] | > 10000 nM | 35% | 15% | 89% | 24% | 82% | 16% | 125% | 94% | 88% | 55% | 119% | 112% | 88% | 70% | 79% | 86% | 111% | 93% | 32% | remaining activity at 1 µM (MLK3): 54%; reduced inhibition of the select off-target kinases compared with JW-7-25-1 [1]: 20- to 140 fold; IC50 (141 kinases): 42 to 109 nM; remaining activity at 1 µM (TAK1): 22%; remaining activity at 1 µM (EPH-B2): 70%; IC50 (GSK3A): 1740 nM; remaining activity at 1 µM (SGK1): 72%; remaining activity at 1 µM (TTBK2): 86%; remaining activity at 1 µM (CLK2): 11%; remaining activity at 1 µM (ULK1): 93%; remaining activity at 1 µM (MSK1): 65%; remaining activity at 1 µM (SIK2): 79%; IC50 (MCF7; [2]): 8750 nM; IC50 (MCF7; [3]): 4130 nM; remaining activity at 1 µM (MARK3): 94%; remaining activity at 1 µM (CHK1): 86%; remaining activity at 1 µM (WNK1): 101%; % AR (% kinase activity remaining) (PHK): 74%; remaining activity at 1 µM (PLK1): 95%
CC(=O)c1cnc2ccc(-c3cc(Cl)c(O)c(Cl)c3)nc2c1N[C@H]1CC[C@H](CN(C)C)CC1 [OTSSP167] | 55 nM | 0% | 1% | 4% | 1% | 49% | 0% | 2% | 10% | 74% | 1% | 88% | 12% | 6% | 4% | 9% | 0% | 96% | 90% | 3% | remaining activity at 1 µM (TAK1): 1%; remaining activity at 1 µM (EPH-B2): 1%; IC50 (GSK3A): 1.6 nM; remaining activity at 1 µM (SGK1): 12%; remaining activity at 1 µM (TTBK2): 91%; remaining activity at 1 µM (CLK2): 0%; remaining activity at 1 µM (ULK1): 32%; remaining activity at 1 µM (MSK1): 5%; remaining activity at 1 µM (SIK2): 2%; IC50 (MCF7; [2]): 35 nM; IC50 (MCF7; [3]): 27 nM; remaining activity at 1 µM (MARK3): 13%; remaining activity at 1 µM (CHK1): 11%; remaining activity at 1 µM (WNK1): 111%; % AR (% kinase activity remaining) (PHK): 3%; remaining activity at 1 µM (PLK1): 3%

From PMC5605198, “MELK is not necessary for the proliferation of basal-like breast cancer cells” (eLife, 2017)
